Each structure is given as a SMILES string.

Common to all, as to type: binding
Experiment [1] has as its target T1, IctP (PA0884) (Pseudomonas aeruginosa, UniProt Q9I561).
T1 construct: SBP domain (pa0884), recombinant from E. coli
Kind of experiment: intrinsic tryptophan fluorescence titration.

The target in experiment [2] is T1, IctP (PA0884). Kind of experiment: crystal structure ([…] Å); intrinsic tryptophan fluorescence titration; nanoDSF (~[…] °C shift). (DSF heats the sample and reads unfolding from a dye or from intrinsic fluorescence.)
The target of experiment [3] is T1, IctP (PA0884). The experiment is described as above. The source holds these as a separate data set.

T1 sequence (Q9I561 entry or part of it): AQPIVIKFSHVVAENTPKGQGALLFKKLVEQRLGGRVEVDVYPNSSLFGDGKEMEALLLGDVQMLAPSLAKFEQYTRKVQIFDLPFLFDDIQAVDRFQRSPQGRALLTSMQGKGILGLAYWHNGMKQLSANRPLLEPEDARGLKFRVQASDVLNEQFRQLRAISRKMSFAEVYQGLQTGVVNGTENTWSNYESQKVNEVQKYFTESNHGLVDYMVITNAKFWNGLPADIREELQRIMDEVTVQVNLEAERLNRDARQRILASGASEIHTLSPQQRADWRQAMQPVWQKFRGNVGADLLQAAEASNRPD

For `O=C(O)C[C@H](O)C(=O)O` [L-malate], the dissociation constant Kd on IctP (PA0884) [1] was 16.2 µM.

For the compound `C=C(CC(=O)O)C(=O)O` [itaconate, 2-methylenesuccinate], the Kd on IctP (PA0884) [2] was 180 µM.

For the compound `O=C(O)CCC(=O)O` [succinate], at IctP (PA0884) [3], the Kd was 32.6 µM.

A word on the Kd: it is the constant that tells how readily two partners part at equilibrium.

These data come from publication PMC12599236, “Itaconate utilisation by the human pathogen Pseudomonas aeruginosa requires uptake via the IctPQM TRAP transporter” (Biochemical Journal, 2025).
